For the data set the following is noted: saturated.

Structures are written as SMILES. Where two headings read alike, the source gives them in different places.

We go through one molecule from patent US12171868B2 (Neurelis, Inc., priority 2022, dated 2024).

Regarding `Cc1cc2c(s1)Nc1ccccc1N=C2N1CCN(C)CC1` [Olanzapine, 2-methyl-4-(4-methyl-1-piperazinyl)-10H-thieno[2,3-b] [1,5]benzodiazepine], the Appearance entry is “Clear amber solution” (20% Dimethylacetamide/80% PEG 200); “Clear amber solution” (40% Dimethylacetamide/60% PEG 200); “Clear dark amber solution” (60% Dimethylacetamide/40% PEG 200); “Clear dark amber solution” (80% Dimethylacetamide/20% PEG 200); “Clear amber solution” (100% PEG 200).
